US20090082304A1, “Methods of Treating Hematological Malignancies with Nucleoside Analog Drugs” (NORTHWESTERN UNIVERSITY, priority 2004, published 2009)

Key:
[1] = system: Akt kinase; experiment: Immunoblot of phospho-Akt in MM.1 S cells; format: cell-based; details: data not shown; for phospho-Akt: dextrose-free media, ATP depletion, 90 minutes; for phosphorylation of Akt: 4 hours
Protocol: (§1) 5×10^6 were cells treated with 10 μM 8-NH2-Ado for the indicated times and harvested. Cell pellets were washed with cold phosphate-buffered saline (PBS; 8.1 g NaCl, 1.14 g Na2HPO4, 0.22 g KCl, and 0.25 g/L KH2PO4) and incubated with lysis buffer (50 mM HEPES, 150 mM NaCl, 1.5 mM MgCl2, 1 mM EDTA pH 8.0, 100 mM NaFI, 10 mM Na Pyrophosphate, 500 μM PMSF, 0.5% Triton X-100, 10% glycerol) at 4° C. for one hour. Lysates were centrifuged at 4° C. for 1 minute at 9000×g, and the supernatants were collected and stored at −20° C. Protein concentration was determined by Bio-Rad protein assay (BioRad Laboratories, Hercules, Calif.). Protein, at a concentration of 30 μg, was mixed with sample buffer (125 mM Tris, pH 6.8, 4% SDS, 20% glycerol, 100 mM Dithiothreitol (DTT), and 0.05% bromophenol blue), and fractionated on a pre-cast 8-16% Tris-Glycine gel (Invitrogen/Novex, Carlsbad, Calif.). Proteins were then transferred to a Polyvinylidene Fluoride (PVDF) membrane (Immobilon-P, Millipore, Bedford, Mass.): Following protein transfer, membranes were blocked with 5% non-fat milk in PBS-T (PBS with 0.1% Tween), incubated with the primary antibody overnight at 4° C. and subsequently with horseradish peroxidase linked secondary antibody (Amersham, Arlington Heights, Ill.). Blots were developed using ECL Plus Chemiluminescent Western Blotting Detection reagent (Amersham, Arlington Heights, Ill.) and the signal was visualized with X-ray film (Hyperfilm, Amersham, Arlington Heights, Ill.). For reprobing purposes, blots were stripped using Restore Western Blot Stripping Buffer from Pierce Biotechnology (Rockford, Ill.). Phospho-MKK3/6 (Ser189/207), phospho-p38 (Thr180/Tyr182), phospho-ATF-2 (Thr69/71), phospho-c-Raf (Ser259), phospho-MEK1/2 (Ser217/221), total MEK1/2, phospho-ERK1/2 (Thr202/Tyr204), total ERK1/2, phospho-p90RSK (Ser380), total RSK, phospho-PDK1 (Ser241), total PDKI, phospho-PTEN (Ser380), total PTEN, phospho-Akt (Ser473), total Akt, phospho-GSK-3β (Ser9), total GSK-3β, phospho-FKHRLI (Thr32)/-FKHR (Thr24), phospho-FKHR (Ser256) primary antibodies were obtained from Cell Signaling Technology (Beverly, Mass.). Total MKK3, total MKK6, total p38, total ATF-2, total c-Raf, total FKHR, total FKHRLI, phospho-JNK and total JNK were purchased from Santa Cruz Biotechnology (Santa Cruz, Calif.). Caspase 3, caspase 9, and PARP antibodies were obtained from Pharmingen (San Diego, Calif.) and anti-MKP1 from Upstate (Lake Placid, N.Y.). Anti-caspase 8 mouse serum was a generous gift of Dr. Marcus Peter (University of Chicago).
(§2) MM.1 S cells were exposed to 10 μM 8-NH2-Ado for 0, 0.5, 1, 2, 4 and 6 hours, after which cells were lysed as previously (Example 2). 30 μg of protein was separated by gel electrophoresis, transferred to PVDF membrane, and probed with phosphorylation-specific antibodies to MKK3/6, p38 MAPK, ATF-2, MEK1/2, ERK1/2, p90RSK, JNK1, PDK1, Akt, FKHRL1 and GSK-3β.
(§3) MM. I S cells were treated with 10 μM 8-chloro-adenosine for 0, 0.5, 1, 2, 4 or 6 hours or 10 μM of cytarabine, fludarabine, gemcitabine or 8-amino-adenosine for 4 hours. Cells were lysed as previously described and 30 μg of protein was separated by gel electrophoresis, transferred to PVDF membrane, and probed with phospho-p38 MAPK (Thr180/Tyr182) antibody.
(§4) MM.1 S cells were grown in dextrose-free media and treated with 2 μM Antimycin A, 5 mM 2-DOG, and varying concentrations of dextrose for 90 minutes. Cellular ATP levels were determined using triplicate samples in a luciferase based assay and are expressed here as a percentage of untreated control.

[2] = system: ERK1/2; experiment: Immunoblot of phospho-ERK1/2 in MM.1 S cells; format: cell-based; details: data not shown; for phospho-ERK1/2: dextrose-free media, ATP depletion, 90 minutes; for phosphorylation of ERK1/2: 4 hours
Protocol: as §1, §2, §3, §4

[3] = system: MM cells; details: cited from earlier work
[4] = system: p38 MAPK; experiment: Immunoblot of phospho-p38 MAPK in MM.1 S cells; format: cell-based
Protocol: as §1
MM.1 S cells were exposed to 10 μM 8-NH2-Ado for 0, 0.5, 1, 2, 4 and 6 hours, after which cells were lysed as previously (Example 2). 30 μg of protein was separated by gel electrophoresis, transferred to PVDF membrane, and probed with phosphorylation-specific antibodies to MKK3/6, p38 MAPK, ATF-2, MEK1/2, ERK1/2, p90RSK, JNK1, PDK1, Akt, FKHRL1 and GSK-3β. […] FIGS. 1A, 1B, 1C and 1D provide the results of the blots.
as §3
In a parallel approach to test the involvement of cellular phosphatases, we treated MM.1 S cells with varying concentrations of the phosphatase inhibitor okadaic acid in combination with 8-NH2-Ado for 4 hours to assess whether the serine/threonine phosphatases PP2A and PPI are involved.

[5] = system: MM cells; details: MM cells, previously shown; cited from earlier work

## O=CC[C@@H](O)[C@H](O)[C@H](O)CO [2-DOG, 2-deoxy-D-glucose]
[1]
  phospho-Akt: did not reveal a decrease in phosphorylation
[2]
  phospho-ERK1/2: did not reveal a decrease in phosphorylation

## Nc1ncnc2c1nc(Cl)n2[C@@H]1O[C@H](CO)[C@@H](O)[C@H]1O [8-chloro-adenosine]
[3]
  apoptosis: induces apoptosis
[1]; 10 μM, time course 0-6 hours
  phosphorylation status of Akt kinase: does not reveal any effect
[4]; 10 μM, time course 0-6 hours
  phosphorylation status of p38: does not reveal any effect
[2]; 10 μM, time course 0-6 hours
  phosphorylation status of ERK1/2: does not reveal any effect

## Nc1nc(F)nc2c1ncn2[C@@H]1O[C@H](CO)[C@@H](O)[C@@H]1O [Fludarabine]
[5]
  cytotoxicity: cytotoxic

## Nc1ccn([C@@H]2O[C@H](CO)[C@@H](O)[C@@H]2O)c(=O)n1 [cytarabine]
[1]; 10 μM
  phosphorylation of Akt: do not cause a decrease
[5]
  cytotoxicity: cytotoxic
[4]; 10 μM, 4 hours
  phosphorylation of p38: do not cause a decrease
[2]; 10 μM
  phosphorylation of ERK1/2: do not cause a decrease

## Nc1ccn([C@@H]2O[C@H](CO)[C@@H](O)C2(F)F)c(=O)n1 [gemcitabine]
[1]; 10 μM
  phosphorylation of Akt: do not cause a decrease
[5]
  cytotoxicity: cytotoxic
[4]; 10 μM, 4 hours
  phosphorylation of p38: do not cause a decrease
[2]; 10 μM
  phosphorylation of ERK1/2: do not cause a decrease

## C=C1[C@@H](O)[C@@H]2O[C@]3(CC[C@H](/C=C/[C@@H](C)[C@@H]4CC(C)=C[C@@]5(O[C@H](C[C@@](C)(O)C(=O)O)CC[C@H]5O)O4)O3)CC[C@H]2O[C@@H]1[C@@H](O)C[C@H](C)[C@H]1O[C@@]2(CCCCO2)CC[C@H]1C [okadaic acid]
[4]; 30 nM okadaic acid in combination with 8-NH2-Ado, 4 hours
  phospho-p38 in the presence of 8-NH2-Ado: partial recovery of phosphorylation
[4]; 30 nM okadaic acid with 10 μM 8-NH2-Ado, at 6 hours
  phospho-p38 levels: still present
[4]; 30 nM okadaic acid with 10 μM 8-NH2-Ado, time course
  8-NH2-Ado-induced loss of p38 phosphorylation: significantly delays

## Antimycin A
[1]
  phospho-Akt: did not reveal a decrease in phosphorylation
[2]
  phospho-ERK1/2: did not reveal a decrease in phosphorylation
